Assay results: PMC6017932, “Synthesis of Selenium-Quinone Hybrid Compounds with Potential Antitumor Activity via Rh-Catalyzed C-H Bond Activation and Click Reactions” (Molecules : A Journal of Synthetic Chemistry and Natural …, 2017)
Where two headings read alike, the source gives them in different places. Blank lines part the entries; values can stand above or below the molecule they belong to.

How the values were obtained:
[1] = tested on: HL-60 (human promyelocytic leukemia cells); assay: MTT cytotoxicity, HL-60 cells; assay type: cell-based; details: three independent experiments, read-out: Cytotoxic activity IC50 (95% CI) HL-60
Experimental: (§1) Compounds were evaluated for antitumor activity in cell culture in vitro using several human cancer cell lines obtained from the National Cancer Institute, NCI (Bethesda, MD, USA). […] The L929 cells were cultivated under standard conditions in DMEM with Earle’s salts. […] At the end of the incubation time (72 h), the plates were centrifuged and the medium was replaced by fresh medium (200 μL) containing 0.5 mg/mL MTT. After 3 h, the MTT formazan product was dissolved in DMSO (150 μL) and the absorbance was measured using a multiplate reader (Spectra Count, Packard, ON, Canada). The impact of compounds on cell proliferation was quantified as the percentage of control absorbance of the reduced dye at 550 nm. All cell culture based studies were performed in triplicate. All cells were mycoplasma-free.

[2] = tested on: HCT-116 (human colon carcinoma cells); assay: MTT cytotoxicity, HCT-116 cells; assay type: cell-based; details: three independent experiments, read-out: Cytotoxic activity IC50 (95% CI) HCT-116
Experimental: as §1

[3] = tested on: SF295 (human glioblastoma cells); assay: MTT cytotoxicity, SF295 cells; assay type: cell-based; details: three independent experiments, read-out: Cytotoxic activity IC50 (95% CI) SF295
Experimental: as §1

[4] = tested on: NCIH-460 (human lung cells); assay: MTT cytotoxicity, NCIH-460 cells; assay type: cell-based; details: three independent experiments, read-out: Cytotoxic activity IC50 (95% CI) NCIH-460
Experimental: as §1

[5] = tested on: PC3 (human prostate cancer cells); assay: MTT cytotoxicity, PC3 cells; assay type: cell-based; details: Homo sapiens, PC-3, 72 h exposure, three independent experiments, read-out: Cytotoxic activity IC50 (95% CI) PC3
Experimental: as §1

[6] = MTT cytotoxicity, L929 normal cells; assay type: cell-based, mouse; details: mouse, normal cell line, 72 h exposure, three independent experiments, read-out: Cytotoxic activity IC50 (95% CI) L929
Experimental: as §1

[7] = tested on: L929 (murine fibroblasts normal cells); assay: MTT cytotoxicity, L929 normal cells; assay type: cell-based, mouse; details: normal cell line, 72 h exposure, three independent experiments, read-out: Cytotoxic activity IC50 (95% CI) L929
Experimental: as §1

[8] = Homo sapiens, HL-60, 72 h exposure
[9] = Homo sapiens, HCT-116, 72 h exposure
[10] = Homo sapiens, SF-295, 72 h exposure
[11] = Homo sapiens, NCI-H460, 72 h exposure

melting point: 140.7 to 148.3 °C
Molecule: COc1ccc([Se]C2=CC(=O)c3ccccc3C2=O)cc1 [Compound 3, 2-((4-Methoxyphenyl)selanyl)naphthalene-1,4-dione]
IC50 [1, 8]: 4.68 µM
IC50 [2, 9]: > 10 µM
IC50 [3, 10]: > 10 µM
IC50 [4, 11]: > 10 µM
IC50 [5]: > 10 µM
IC50 at 72 h [6]: > 10 µM

melting point: 113.5 to 114.6 °C
Molecule: COc1ccc([Se]Cc2cn(C3C4=C(OC(C)(C)C3Br)c3ccccc3C(=O)C4=O)nn2)cc1 (stereo not drawn) [Compound 19, 3-Bromo-4-(4-(((4-methoxyphenyl)selanyl)methyl)-1H-1,2,3-triazol-1-yl)-2,2-dimethyl-3,4-dihydro-2H-benzo[h]chromene-5,6-dione]
IC50 [1, 8]: 1.28 µM
IC50 [2, 9]: > 8 µM
IC50 [3, 10]: 1.75 µM
IC50 [4, 11]: 2.33 µM
IC50 [5]: 1.55 µM
IC50 at 72 h [6]: 0.68 µM

melting point: 103.8 to 104.7 °C
Molecule: COC1=C(Cn2cc(-c3ccccc3)nn2)C(=O)c2ccccc2C1=O [Compound 9, 2-Methoxy-3-((4-phenyl-1H-1,2,3-triazol-1-yl)methyl)naphthalene-1,4-dione]
IC50 [1, 8]: 5.39 µM
IC50 [2, 9]: > 10 µM
IC50 [3, 10]: > 10 µM
IC50 [4, 11]: > 10 µM
IC50 [5]: > 10 µM
IC50 at 72 h [6]: > 10 µM

melting point: 174.1 to 175 °C
Molecule: COC1=C(Cn2cc(-c3ccc(Br)cc3)nn2)C(=O)c2ccccc2C1=O [Compound 13, 2-((4-(4-Bromophenyl)-1H-1,2,3-triazol-1-yl)methyl)-3-methoxynaphthalene-1,4-dione]
IC50 [1, 8]: > 10 µM
IC50 [2, 9]: > 10 µM
IC50 [3, 10]: > 10 µM
IC50 [4, 11]: > 10 µM
IC50 [5]: > 10 µM
IC50 at 72 h [6]: > 10 µM

melting point: 149.3 to 150.7 °C
Molecule: COC1=C(Cn2cc(-c3ccc(OC)cc3)nn2)C(=O)c2ccccc2C1=O [Compound 11, 2-Methoxy-3-((4-(4-methoxyphenyl)-1H-1,2,3-triazol-1-yl)methyl)naphthalene-1,4-dione]
IC50 [1, 8]: 2.32 µM
IC50 [2, 9]: > 10 µM
IC50 [3, 10]: > 10 µM
IC50 [4, 11]: > 10 µM
IC50 [5]: > 10 µM
IC50 at 72 h [6]: > 10 µM

melting point: 187.1 to 190 °C
Molecule: CC1(C)OC2=C(C(=O)C(=O)c3ccccc32)C(n2cc(C[Se]c3ccc(F)cc3)nn2)C1Br (stereo not drawn) [Compound 18, 3-Bromo-4-(4-(((4-fluorophenyl)selanyl)methyl)-1H-1,2,3-triazol-1-yl)-2,2-dimethyl-3,4-dihydro-2H-benzo[h]chromene-5,6-dione]
IC50 [1, 8]: 0.59 µM
IC50 [2, 9]: 0.37 µM
IC50 [3, 10]: 1.48 µM
IC50 [4, 11]: 1.32 µM
IC50 [5]: 1.06 µM
IC50 at 72 h [6]: 0.36 µM

Molecule: COC1=C(CN=[N+]=[N-])C(=O)c2ccccc2C1=O [Compound 8, 2-(Azidomethyl)-3-methoxynaphthalene-1,4-dione]
IC50 [1, 8]: > 10 µM
IC50 [2, 9]: > 10 µM
IC50 [3, 10]: > 10 µM
IC50 [4, 11]: > 10 µM
IC50 [5]: > 10 µM
IC50 at 72 h [6]: > 10 µM

melting point: 123.1 to 124.5 °C
Molecule: COC1=C(Cn2cc(-c3ccc(C)cc3)nn2)C(=O)c2ccccc2C1=O [Compound 12, 2-Methoxy-3-((4-(p-tolyl)-1H-1,2,3-triazol-1-yl)methyl)naphthalene-1,4-dione]
IC50 [1, 8]: > 10 µM
IC50 [2, 9]: > 10 µM
IC50 [3, 10]: > 10 µM
IC50 [4, 11]: > 10 µM
IC50 [5]: > 10 µM
IC50 at 72 h [6]: > 10 µM

Molecule: COc1cccc2c1C(=O)c1c(O)c3c(c(O)c1C2=O)C[C@@](O)(C(=O)CO)C[C@@H]3O[C@H]1C[C@H](N)[C@H](O)[C@H](C)O1 [DOXO, Doxorubicin, reference compound]
IC50 [1, 8]: 0.02 µM
IC50 [2, 9]: 0.21 µM
IC50 [5]: 0.76 µM
IC50 at 72 h [6]: 1.72 µM

melting point: 69 to 71 °C
Molecule: COC1=C(Cn2cc(C[Se]c3ccccc3)nn2)C(=O)c2ccccc2C1=O [Compound 14, 2-Methoxy-3-((4-((phenylselanyl)methyl)-1H-1,2,3-triazol-1-yl)methyl)naphthalene-1,4-dione]
IC50 [1, 8]: > 10 µM
IC50 [2, 9]: > 10 µM
IC50 [3, 10]: > 10 µM
IC50 [4, 11]: > 10 µM
IC50 [5]: > 10 µM
IC50 at 72 h [6]: > 10 µM

melting point: 119.5 to 121.4 °C
Molecule: CC1(C)OC2=C(C(=O)C(=O)c3ccccc32)C(n2cc(CSc3ccccc3)nn2)C1Br (stereo not drawn) [Compound 24, 3-Bromo-2,2-dimethyl-4-(4-((phenylthio)methyl)-1H-1,2,3-triazol-1-yl)-3,4-dihydro-2H-benzo[h]chromene-5,6-dione]
IC50 [1, 8]: 1.94 µM
IC50 [2, 9]: 4.38 µM
IC50 [3, 10]: 2.34 µM
IC50 [4, 11]: 4.91 µM
IC50 [5]: 2.1 µM
IC50 at 72 h [6]: 0.84 µM

melting point: 205.8 to 206.7 °C
Molecule: COC1=C(Cn2cc(-c3ccc([N+](=O)[O-])cc3)nn2)C(=O)c2ccccc2C1=O [Compound 10, 2-Methoxy-3-((4-(4-nitrophenyl)-1H-1,2,3-triazol-1-yl)methyl)naphthalene-1,4-dione]
IC50 [1, 8]: > 10 µM
IC50 [2, 9]: > 10 µM
IC50 [3, 10]: > 10 µM
IC50 [4, 11]: > 10 µM
IC50 [5]: > 10 µM
IC50 at 72 h [6]: > 10 µM

Molecule: 4-(4-((Benzylselanyl)methyl)-1H-1,2,3-triazol-1-yl)-3-bromo-2,2-dimethyl-3,4-dihydro-2H-benzo[h]-chromene-5,6-dione [Compound 20]
IC50 ([1]; 72 h exposure): 1 µM
IC50 ([2]; 72 h exposure): 2.03 µM
IC50 ([3]; 72 h exposure): 3.12 µM
IC50 ([4]; 72 h exposure): 3.26 µM
IC50 [7]: 0.61 µM

Molecule: O=C1C=C([Se]c2ccccc2)C(=O)c2ccccc21 [Compound 2, 2-(Phenylselanyl)naphthalene-1,4-dione]
IC50 [1, 8]: 1.96 µM
IC50 [2, 9]: > 10 µM
IC50 [3, 10]: > 10 µM
IC50 [4, 11]: > 10 µM
IC50 [5]: > 10 µM
IC50 at 72 h [6]: > 10 µM

melting point: 104.3 to 108.6 °C
Molecule: CC1(C)OC2=C(C(=O)C(=O)c3ccccc32)C(n2cc(C[Se]c3cccs3)nn2)C1Br (stereo not drawn) [Compound 22, 3-Bromo-2,2-dimethyl-4-(4-((thiophen-2-ylselanyl)methyl)-1H-1,2,3-triazol-1-yl)-3,4-dihydro-2H-benzo[h]chromene-5,6-dione]
IC50 [1, 8]: 0.53 µM
IC50 [2, 9]: > 8 µM
IC50 [3, 10]: 2.13 µM
IC50 [4, 11]: 2.75 µM
IC50 [5]: 2.47 µM
IC50 at 72 h [6]: 3.16 µM

melting point: 154.8 to 155.7 °C
Molecule: O=C1C=C([Se]c2ccc(Cl)cc2)C(=O)c2ccccc21 [Compound 4, 2-((4-Chlorophenyl)selanyl)naphthalene-1,4-dione]
IC50 [1, 8]: 2.25 µM
IC50 [2, 9]: > 10 µM
IC50 [3, 10]: > 10 µM
IC50 [4, 11]: > 10 µM
IC50 [5]: > 10 µM
IC50 at 72 h [6]: > 10 µM

melting point: 185.3 to 187.1 °C
Molecule: CC1(C)OC2=C(C(=O)C(=O)c3ccccc32)C(n2cc(C[Se]c3ccc(Cl)cc3)nn2)C1Br (stereo not drawn) [Compound 17, 3-Bromo-4-(4-(((4-chlorophenyl)selanyl)methyl)-1H-1,2,3-triazol-1-yl)-2,2-dimethyl-3,4-dihydro-2H-benzo[h]chromene-5,6-dione]
IC50 [1, 8]: 0.81 µM
IC50 [2, 9]: > 8 µM
IC50 [3, 10]: 2.6 µM
IC50 [4, 11]: 2.06 µM
IC50 [5]: 2.03 µM
IC50 at 72 h [6]: 0.52 µM

melting point: 123.1 to 124.4 °C
Molecule: CCCC[Se]Cc1cn(C2C3=C(OC(C)(C)C2Br)c2ccccc2C(=O)C3=O)nn1 (stereo not drawn) [Compound 23, 3-Bromo-4-(4-((butylselanyl)methyl)-1H-1,2,3-triazol-1-yl)-2,2-dimethyl-3,4-dihydro-2H-benzo[h]chromene-5,6-dione]
IC50 [1, 8]: 0.71 µM
IC50 [2, 9]: 0.97 µM
IC50 [3, 10]: 3.43 µM
IC50 [4, 11]: 2.64 µM
IC50 [5]: 1.64 µM
IC50 at 72 h [6]: 2.12 µM

Molecule: COC1=C(Cn2cc(C[Se]c3ccc(OC)cc3)nn2)C(=O)c2ccccc2C1=O [Compound 15, 2-Methoxy-3-((4-(((4-methoxyphenyl)selanyl)methyl)-1H-1,2,3-triazol-1-yl)methyl)naphthalene-1,4-dione]
IC50 [1, 8]: > 10 µM
IC50 [2, 9]: > 10 µM
IC50 [3, 10]: > 10 µM
IC50 [4, 11]: > 10 µM
IC50 [5]: > 10 µM
IC50 at 72 h [6]: > 10 µM

melting point: 139.2 to 139.9 °C
Molecule: O=C1C=C([Se]c2ccc(F)cc2)C(=O)c2ccccc21 [Compound 5, 2-((4-Fluorophenyl)selanyl)naphthalene-1,4-dione]
IC50 [1, 8]: 2.16 µM
IC50 [2, 9]: > 10 µM
IC50 [3, 10]: > 10 µM
IC50 [4, 11]: > 10 µM
IC50 [5]: > 10 µM
IC50 at 72 h [6]: > 10 µM
